For assay [1], the system named is phospho-Ser-473-Akt. Briefly: AKT phosphorylation inhibition, Western blot analysis. The settings on record: cellular p-AKT. It is filed as cell-based. The procedure: (§1) Cell culture: The cell lines were obtained from the American Type Culture Collection (ATCC). U2OS (human osteosarcoma) was cultured in Dulbecco's modified Eagle's medium (DMEM). PC3 (human prostate carcinoma), MCF7 (human breast cardinoma), HCT116 (human colon carcinoma), […], U251 (human glyoblastoma) were grown in RPMI. All media were supplemented with 10% fetal bovine serum (FBS) (Sigma) and antibiotics-antimycotics. Cell were maintained in a humidified incubator at 37° C. with 5% CO2 and passaged when confluent using trypsin/EDTA.
AKT phosphorylation Inhibition Western Blot Analysis: Subconfluent cells were incubated under different conditions and washed twice with TBS prior to lysis. Lysis buffer was added containing 50 mM Tris HCl, 150 mM NaCl, 1% NP-40, 2 mM Na3VO4, 100 mM NaF, 20 mM Na4P2O7 and protease inhibitor cocktail (Roche Molecular Biochemicals). The proteins were resolved on 10% SDS-PAGE and transferred to nitrocellulose membrane (Schleicher & Schuell, Dassel, Germany). The membranes were incubated overnight at 4° C. with antibodies specific for Akt, phospho-Ser-473-Akt (Cell Signaling Technology) and α-tubulin (Sigma), they were washed and then incubated with IRDye800 conjugated anti-mouse and Alexa Fluor 680 goat anti-rabbit IgG secondary antibodies. The bands were visualized using an Odyssey infrared imaging system (Li-Cor Biosciences).

Assay [2] deals with T1, PI3K (p110α/p85α) (Homo sapiens, UniProt P42336).
T1 construct: purchased Carna Biosciences 07CBS-0402A
Briefly: PI3K activity assay (ADP Hunter Plus). Format: biochemical. The settings on record: quantitative results, read-out: PI3K α IC50. The procedure:
The kinase activity was measured by using the commercial ADP Hunter™ Plus assay available from DiscoveRx (#33-016), which is a homogeneous assay to measure the accumulation of ADP, a universal product of kinase activity. […] Reaction was carried out for 1 hour at 25° C. Reagent A and B were sequentially added to the wells and plates were incubated for 30 min at 37° C. […] Values were normalized against the control activity included for each enzyme (i.e., 100% PI3 kinase activity, without compound). These values were plot against the inhibitor concentration and were fit to a sigmoid dose-response curve by using the Graphed software.

For assay [3], the system named is phospho-AKT (Ser473) in Osteosarcoma U2OS cells. Put plainly: PI3K cellular activity, ELISA (phospho-AKT Ser473). Format: cell-based. The settings on record: Homo sapiens, cellular p-AKT. The procedure:
as §1
Activity was measured as endogenous levels of phospho-AKT (Ser473) protein. Osteosarcoma U2OS cells were plated in 96 Poly-D-Lysine coating tissue culture plates (18.000 cells/well). After the treatment with serial dilutions of the compound during 3 h, the cells were fixed directly in the wells with 4% paraformaldehide. After fixing, individual wells went through the same series of steps used for a conventional immunoblot: including blocking with 5% BSA, incubation with 1/1000 of primary antibody-AKT ([…]) in PBS containing 5% BSA at 4° C. overnight (Cell Signalling), washing and incubation with second antibody HRP-anti-mouse IgG for 1 h at RT (Amersham). After the addition of SuperSignal ELISA Femto maximum sensitivity chemiluminescent substrate (Pierce) the results were read in a luminescence plate reader (Victor).
(In general: An ELISA detects its analyte on a solid surface through an enzyme-linked reagent.)

Where two headings read alike, the source gives them in different places.

T1 sequence (P42336 whole entry): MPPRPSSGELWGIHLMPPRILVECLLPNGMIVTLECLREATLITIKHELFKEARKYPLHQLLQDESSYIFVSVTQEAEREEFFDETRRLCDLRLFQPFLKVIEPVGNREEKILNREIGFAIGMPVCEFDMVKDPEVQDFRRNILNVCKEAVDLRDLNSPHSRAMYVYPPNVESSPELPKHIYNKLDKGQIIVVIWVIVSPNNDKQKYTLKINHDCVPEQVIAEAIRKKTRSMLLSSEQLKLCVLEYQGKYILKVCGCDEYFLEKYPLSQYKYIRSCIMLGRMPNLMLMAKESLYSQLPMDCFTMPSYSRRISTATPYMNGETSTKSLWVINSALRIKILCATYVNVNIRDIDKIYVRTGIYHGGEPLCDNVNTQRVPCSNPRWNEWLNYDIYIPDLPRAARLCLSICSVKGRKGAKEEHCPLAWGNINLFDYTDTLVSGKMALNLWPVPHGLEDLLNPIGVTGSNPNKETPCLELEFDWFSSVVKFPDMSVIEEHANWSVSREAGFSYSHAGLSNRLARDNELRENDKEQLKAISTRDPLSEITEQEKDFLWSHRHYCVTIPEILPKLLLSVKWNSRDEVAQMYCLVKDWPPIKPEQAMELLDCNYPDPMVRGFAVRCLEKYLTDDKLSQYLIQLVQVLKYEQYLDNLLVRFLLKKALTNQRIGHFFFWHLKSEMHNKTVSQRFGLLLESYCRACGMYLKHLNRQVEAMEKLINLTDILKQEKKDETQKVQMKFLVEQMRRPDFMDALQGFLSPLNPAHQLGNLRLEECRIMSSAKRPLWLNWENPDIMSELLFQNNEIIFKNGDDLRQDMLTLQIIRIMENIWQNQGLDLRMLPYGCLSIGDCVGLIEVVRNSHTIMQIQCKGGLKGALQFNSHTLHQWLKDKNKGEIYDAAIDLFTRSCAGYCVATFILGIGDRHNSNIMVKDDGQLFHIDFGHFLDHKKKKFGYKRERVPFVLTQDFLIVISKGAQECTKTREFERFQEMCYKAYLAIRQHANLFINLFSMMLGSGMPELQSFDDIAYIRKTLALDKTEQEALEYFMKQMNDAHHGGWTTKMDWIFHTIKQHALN
T1 sequence (P27986 whole entry partner): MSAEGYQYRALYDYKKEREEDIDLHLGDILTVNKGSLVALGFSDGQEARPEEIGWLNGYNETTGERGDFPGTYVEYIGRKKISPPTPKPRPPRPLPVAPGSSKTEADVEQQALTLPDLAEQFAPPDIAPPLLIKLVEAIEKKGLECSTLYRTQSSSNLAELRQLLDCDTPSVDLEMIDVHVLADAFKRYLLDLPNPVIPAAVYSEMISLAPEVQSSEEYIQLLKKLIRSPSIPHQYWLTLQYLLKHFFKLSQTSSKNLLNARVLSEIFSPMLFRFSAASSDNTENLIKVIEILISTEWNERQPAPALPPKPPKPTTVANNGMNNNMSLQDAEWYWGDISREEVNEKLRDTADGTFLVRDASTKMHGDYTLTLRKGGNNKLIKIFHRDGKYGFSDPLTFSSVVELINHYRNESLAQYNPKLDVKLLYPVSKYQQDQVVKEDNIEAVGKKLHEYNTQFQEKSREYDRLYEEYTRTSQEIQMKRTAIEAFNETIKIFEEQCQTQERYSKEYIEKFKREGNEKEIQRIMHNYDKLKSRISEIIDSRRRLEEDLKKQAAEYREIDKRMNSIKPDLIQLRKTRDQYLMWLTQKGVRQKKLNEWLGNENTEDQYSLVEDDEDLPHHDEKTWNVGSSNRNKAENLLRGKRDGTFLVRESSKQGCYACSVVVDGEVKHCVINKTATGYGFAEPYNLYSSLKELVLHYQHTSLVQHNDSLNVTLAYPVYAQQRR

Turning to `c1cc(-c2cn3c4c(nc3c(N3CCOCC3)n2)CCNC4)c2cn[nH]c2c1` [2-04], the concentration for half-maximal inhibition (IC50) (as a rule, the concentration needed to halve the response being measured) was 56 nM in assay [1] and 755 nM in assay [2] (PI3Kα).

Take `Nc1ncc(-c2cn3c4c(nc3c(N3CCOCC3)n2)CCN(Cc2ccccn2)C4)cn1` [2-18]: the half-maximal inhibitory concentration (IC50) was determined as 245 nM in assay [1] and 69 nM in assay [2] (PI3Kα).

For `CCOC(=O)N1CCc2nc3c(N4CCOCC4)nc(-c4cnc(N)nc4)c(Cl)n3c2C1` [2-32], the IC50 stood at 78 nM in assay [1] and 84 nM in assay [2] (PI3Kα).

Regarding `COc1ccc(CN2CCc3c(nc4c(N5CCOCC5)nc(-c5cnc(N)nc5)cn34)C2=O)cc1` [5-06], the IC50 in assay [1] amounted to 174 nM; in assay [2], 45 nM.

`CN1CCc2c(nc3c(N4CCOCC4)nc(-c4cnc(N)nc4)cn23)C1` [6-02]: the IC50 came out at 318 nM in assay [1] and 88 nM in assay [2].

On to `COCCN1CCc2c(nc3c(N4CCOCC4)nc(-c4cnc(N)nc4)cn23)C1` [6-03], for which the 50% inhibitory concentration (IC50) turned out to be 532 nM in assay [1] and 50 nM in assay [2].

Turning to `COCCN1CCc2c(nc3c(N4CCOCC4)nc(-c4cnc(N)nc4)c(Cl)n23)C1` [6-09], the IC50 in assay [1] is 180 nM; in assay [2], 121 nM.

For `CC(C)C(=O)N1CCc2c(nc3c(N4CCOCC4)nc(-c4cnc(N)nc4)cn23)C1` [6-26], the IC50 in assay [3] was determined as 137 nM; in assay [2], 44 nM.

As to `COc1ccccc1NC(=O)N1CCc2c(nc3c(N4CCOCC4)nc(-c4cnc(N)nc4)cn23)C1` [6-33], the concentration for half-maximal inhibition (IC50) in assay [3] is 188 nM; in assay [2], 25 nM.

As for `Nc1ncc(-c2cn3c4c(nc3c(N3CCOCC3)n2)CN(C(=O)Nc2ccccc2F)CC4)cn1` [6-36], the 50% inhibitory concentration (IC50) in assay [3] turned out to be 250 nM; in assay [2], 21 nM.

In the case of `CN(C)c1ccc(NC(=O)N2CCc3c(nc4c(N5CCOCC5)nc(-c5cnc(N)nc5)cn34)C2)cc1` [6-39], the half-inhibitory concentration (IC50) is 187 nM in assay [3] and 17 nM in assay [2].

`Nc1ncc(-c2cn3c4c(nc3c(N3CCOCC3)n2)CN(C(=O)NCc2ccccc2F)CC4)cn1` [6-44]: the concentration for half-maximal inhibition (IC50) was 139 nM in assay [3] and 7 nM in assay [2].

Take `Nc1ncc(-c2cn3c4c(nc3c(N3CCOCC3)n2)CN(C(=O)Nc2cccc(F)c2)CC4)cn1` [6-45]: the figures for the half-inhibitory concentration (IC50) in assay [3] and in assay [2] were 101 nM and 14 nM, respectively.

For `COc1ccccc1CNC(=O)N1CCc2c(nc3c(N4CCOCC4)nc(-c4cnc(N)nc4)cn23)C1` [6-46], the IC50 in assay [3] worked out at 112 nM; in assay [2] it was 7 nM.
